How the values were obtained:
[1] = Influence of UV irradiation on fluorescence intensity of SAHA-fluorophore conjugates; type: physicochemical; details: UV irradiated 0-30 minutes; HEK293T cells expressing HDAC6-NANOLUC fusion
Description: During development of the BRET approach described herein for estimating crosslinking efficiency, experiments were conducted to determine the influence of UV irradiation on the bioluminescent intensity of the energy donor NANOLUC, and the fluorescence intensity of three fluorophores that can be used as energy acceptors (FIGS. 12-15). The model system for these experiments (FIG. 13) was the interaction between HDAC6 fused to NANOLUC and SAHA (vorinostat), which binds to HDAC6 and was conjugated to one of three fluorophores NCT, TAMRA, and BODIPY576 (FIG. 12). In these experiments HEK293T cells transiently expressing HAD6-NANOLUC fusion were treated for 2 hours with serial dilution of SAHA-fluorophore conjugate, then UV irradiated for 0-30 minutes and subsequently treated with NANOGLO detection reagent. […] Thus, NANOLUC and NCT were chosen as a BRET donor and acceptor pair for the assays estimating photocrosslinking efficiency.

[2] = tested on: STAT5 reporter; experiment: STAT5 reporter expression in K-562 cells; type: cell-based; details: Homo sapiens, K562; K-562 cells transiently expressing a STAT5 reporter, 24 hours; read-out: IC50, inhibited expression of a STAT5 reporter
Description: Dasatinib is a broad kinase inhibitor targeting the BCR-ABL oncogenic pathway, thereby reducing the downstream activation of STAT5. K-562 cells transiently expressing a STAT5 reporter (2×10^5 cells/mL) were treated with serial dilution of dasatinib or a derivative having cleavable chloroalkane tag (+/−a PRG) for 24 hours and then tested for expression of the STAT5 reporter.

Row | Fluorescence intensity under UV irradiation [1] | IC50 [2] [nM] | SMILES
1 | decreased the fluorescence intensity |  | O=C(CCCCCCC(=O)Nc1ccc(CNC(=O)CCc2ccc3n2[B-](F)(F)[N+]2=C(c4ccc[nH]4)C=CC2=C3)cc1)NO [SAHA-BODIPY576]
2 | not significantly affected |  | O=C(CCCCCCC(=O)Nc1ccc(CNC(=O)c2ccc(C(=O)O)c(C3=c4cc5c6c(c4Oc4c3cc3c7c4CCCN7CCCC3)CCC[N+]=6CCCC5)c2)cc1)NO [SAHA-NCT]
3 | decreased the fluorescence intensity |  | CN(C)c1ccc2c(-c3cc(C(=O)NCc4ccc(NC(=O)CCCCCCC(=O)NO)cc4)ccc3C(=O)O)c3ccc(=[N+](C)C)cc-3oc2c1 [SAHA-TMR]
4 |  | 0.4 | Cc1nc(Nc2ncc(C(=O)Nc3c(C)cccc3Cl)s2)cc(N2CCN(CCO)CC2)n1 [dasatinib]

From patent US11913944B2, “Photoaffinity probes” (Promega Corporation, priority 2019, dated 2024)
